From EP0326331B1, “Substituted quinolines and cinnolines” (Dow AgroSciences LLC, priority 1988, dated 1989)
Where two headings read alike, the source gives them in different places.

What was measured:
[1] = tested on: Erysiphe graminis tritici (powdery mildew); test: Test 1 greenhouse foliar spray screen, powdery mildew on wheat; type: in vivo; settings: for POWD MDEW: disease control rating, foliar spray on wheat, 400 ppm (+++ at 100 ppm); for pest or weed control at 400 ppm: Blumeria graminis, foliar, Test 1, foliar spray on wheat, disease control rating at 400 ppm / 100 ppm, read-out: POWD MDEW
[2] = tested on: Pyricularia oryzae (rice blast); test: whole plant or invertebrate; type: in vivo; settings: for RICE BLAST: disease control rating, foliar spray on rice, 400 ppm (+++ at 100 ppm); for pest or weed control at 400 ppm: Pyricularia oryzae, foliar, read-out: RICE BLAST, Test 1, foliar spray on rice, disease control rating at 400 ppm / 100 ppm
[3] = tested on: Puccinia recondita tritici (leaf rust); test: Test 1 greenhouse foliar spray screen, leaf rust on wheat; type: in vivo; settings: for LEAF RUST: disease control rating, foliar spray on wheat, 400 ppm (+++ at 100 ppm); for pest or weed control at 400 ppm: Puccinia recondita, foliar, Test 1, foliar spray on wheat, disease control rating at 400 ppm / 100 ppm
[4] = tested on: Botrytis cinerea (gray mold); test: Test 1 greenhouse foliar spray screen, gray mold on grape berries; type: in vivo; settings: for GRAY MOLD: disease control rating, spray on grape berries, 400 ppm (+++ at 100 ppm); for pest or weed control at 400 ppm: Botrytis cinerea, foliar, Test 1, spray on grape berries, disease control rating at 400 ppm / 100 ppm
[5] = tested on: Pseudoperonospora cubensis (downy mildew); test: Test 1 greenhouse foliar spray screen, downy mildew on squash; type: in vivo; settings: for DOWN MDEW: disease control rating, foliar spray on squash, 400 ppm (+++ at 100 ppm); for activity against downy mildew: summary statement in the description; for pest or weed control at 400 ppm: Pseudoperonospora cubensis, foliar, Test 1, foliar spray on squash, disease control rating at 400 ppm / 100 ppm, read-out: DOWN MDEW
[6] = tested on: Venturia inaequalis (apple scab); test: Test 1 greenhouse foliar spray screen, apple scab on apple seedling; type: in vivo; settings: for APPL SCAB: disease control rating, foliar spray on apple seedling, 400 ppm (+++ at 100 ppm); for pest or weed control at 400 ppm: Venturia inaequalis, Test 1, foliar spray on apple seedling, disease control rating at 400 ppm / 100 ppm, read-out: APPL SCAB
[7] = tested on: Septoria tritici (leaf blotch); test: Test 1 greenhouse foliar spray screen, leaf blotch on wheat; type: in vivo; settings: for LEAF BLOT: disease control rating, foliar spray on wheat, 400 ppm (+++ at 100 ppm); for pest or weed control at 400 ppm: Zymoseptoria tritici, Test 1, foliar spray on wheat, disease control rating at 400 ppm / 100 ppm, read-out: LEAF BLOT
[8] = tested on: Phytophthora infestans; type: in vivo; settings: field test
[9] = tested on: Pyrenophora teres; test: Field tests against plant pathogens; type: in vivo; settings: field test, crop barley
From the text: (§1) Selected compounds were field tested against a variety of plant pathogens. […]

[10] = tested on: southern armyworm (Spodopetra eridania Cramer); test: Mite/insect screen, SAW; type: in vivo; settings: Spodoptera eridania, percent mortality, read-out: SAW RESULTS %; for mortality at 400 ppm: rate 400 ppm
How it was run: (§2)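 Read-out: percent mortality after standard exposure periods. Test solutions were water dilutions of compound dissolved in acetone/alcohol (50:50) with emulsifier blends; leaves were sprayed to runoff on both surfaces and air-dried for one hour before exposure.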

[11] = tested on: Twospotted spider mites (Tetranychus urticae Koch); test: Mite/insect screen, SM; type: in vivo; settings: Tetranychus urticae, percent mortality, read-out: SM RESULTS %; for mortality at 400 ppm: rate 400 ppm
How it was run: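 Foliar spray to runoff (10 psi), 1 h drying; aqueous dilutions from acetone/alcohol emulsifier stock. Mortality (%) after standard exposure.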

[12] = tested on: melon aphids (Aphis gossypii Glover); test: Mite/insect screen, MA; type: in vivo; settings: Aphis gossypii, percent mortality, read-out: MA RESULTS %; for mortality at 400 ppm: rate 400 ppm
How it was run: as §2

[13] = tested on: corn rootworm; test: Mite/insect screen, CRW; type: in vivo; settings: percent mortality, read-out: CRW RESULTS %; for mortality at 24 ppm: CRW rate 24.00 ppm
How it was run: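 Read-out: % mortality after standard exposure. Formulation: acetone/alcohol (50:50) with emulsifiers at 23 g and 13 g per liter, water-diluted to final test levels.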

[14] = tested on: Cercospora beticola (leaf spot); test: Test 1 greenhouse foliar spray screen, leaf spot on sugar beet; type: in vivo; settings: for LEAF SPOT: disease control rating, foliar spray on sugar beet, 400 ppm (+++ at 100 ppm); for pest or weed control at 400 ppm: Cercospora beticola, Test 1, foliar spray on sugar beet, disease control rating at 400 ppm / 100 ppm
[15] = tested on: Plasmopara viticola; test: Field tests against plant pathogens; type: in vivo; settings: field test, crop grape
From the text: as §1

[16] = tested on: plant pathogens; test: Fungicidal efficacy against a broad spectrum of plant pathogens (summary of screen); type: in vivo; settings: summary statement in the description
[17] = tested on: CUCURBIT DOWNY MILDEW; test: Greenhouse combination test with known fungicide, foliar spray; settings: 1-9 rating scale, time 4 hours
Description: (§3) The test compounds were formulated for application by dissolving 50 mg of the compound into 1.25 ml of solvent. The solvent was prepared by mixing 50 ml of "Tween 20" with 475 ml of acetone and 475 ml of ethanol. The solvent/compound solution was diluted to 125 ml with deionized water. The resulting formulation contains 400 ppm test chemical. Lower concentrations were obtained by serial dilution with the solvent-surfactant mixture.
(§4) The formulated technical compounds were sprayed on all foliar surfaces of the host plants (or cut berry) to past run-off. Single pots of each host plant were placed on raised, revolving pedestals in a fume hood. Test solutions were sprayed on all foliar surfaces. All treatments were allowed to dry and the plants were inoculated with the appropriate pathogens within 2-4 hours.
(§5) In the tables, the time given under "Time in hours" is the number of hours elapsing between treatment and inoculation. […] In such cases, curative activity was being tested. […] In such cases, residual or protectant activity was tested. […] The results were evaluated on a 1-9 rating scale. These ratings represent the following percent disease control: 1 = 0-19%, 2 = 20-29%, 3 = 30-39%, 4 = 40-59%, 5 = 60-74%, 6 = 75-89%, 7 = 90-96%, 8 = 97-99%, and 9 = 100%.

[18] = tested on: CUCURBIT POWDERY MILDEW; test: as above; settings: 1-9 rating scale, time 4 hours
Description: as §3, §4, §5

[19] = foliar, rate 200 ppm, foliar spray on squash

Row | SMILES | POWD MDEW [1] | RICE BLAST [2] | LEAF RUST [3] | GRAY MOLD [4] | DOWN MDEW [5] | APPL SCAB [6] | LEAF BLOT [7] | activity against downy mildew [5] | mortality at 200 ppm [10, 19] [%] | mortality at 200 ppm [11, 19] [%] | mortality at 200 ppm [12, 19] [%] | mortality at 12 ppm ([13]; CRW rate 12.00 ppm) [%] | pest or weed control at 400 ppm [1] [%] | pest or weed control at 400 ppm [2] [%] | pest or weed control at 400 ppm [3] [%] | pest or weed control at 400 ppm [4] [%] | pest or weed control at 400 ppm [5] [%] | pest or weed control at 400 ppm [14] [%] | pest or weed control at 400 ppm [6] [%] | pest or weed control at 400 ppm [7] [%] | other results
1 | c1ccc(CCNc2ccnc3ccccc23)cc1 [Example 2, N-(2-phenylethyl)-4-quinolinamine] | - (0-19% control at 400 ppm) | - (0-19% control at 400 ppm) | - (0-19% control at 400 ppm) | - (0-19% control at 400 ppm) | +++ (90-100% control at 100 ppm) | - (0-19% control at 400 ppm) | - (0-19% control at 400 ppm) | – | – | – | – | – | – | – | – | – | – | – | – | – | pathogens against which compounds of the invention showed activity ([8]; crop potato): Phytophthora infestans; pathogens against which compounds of the invention showed activity ([8]; crop tomato): Phytophthora infestans; pathogens against which compounds of the invention showed activity [9]: Pyrenophora teres; mortality at 200 ppm ([10]; SAW, SM & MA RATE 200 PPM): 0%; mortality at 200 ppm ([11]; SAW, SM & MA RATE 200 PPM): 0%; mortality at 200 ppm ([12]; SAW, SM & MA RATE 200 PPM): 0%; mortality at 12 ppm ([13]; CRW RATE 12.00 PPM): 0%
2 | Fc1cccc2c(NCCc3ccccc3C(F)(F)F)ccnc12 [Example 97, 8-fluoro-N-[2-[2-(trifluoromethyl)phenyl]ethyl]-4-quinolinamine] | + (20-89% control at 400 ppm) | +++ (90-100% control at 100 ppm) | +++ (90-100% control at 100 ppm) | - (0-19% control at 400 ppm) | +++ (90-100% control at 100 ppm) | - (0-19% control at 400 ppm) | +++ (90-100% control at 100 ppm) | particularly excellent activity | – | – | – | – | – | – | – | – | – | – | – | – | LEAF SPOT [14]: +++ (90-100% control at 100 ppm); pathogens against which compounds of the invention showed activity [15]: Plasmopara viticola; mortality at 200 ppm ([10]; SAW, SM & MA RATE 200 PPM): 0%; mortality at 200 ppm ([11]; SAW, SM & MA RATE 200 PPM): 0%; mortality at 200 ppm ([12]; SAW, SM & MA RATE 200 PPM): 0%; mortality at 12 ppm ([13]; CRW RATE 12.00 PPM): 0%
3 | Fc1cccc2c(NCCc3cccs3)ccnc12 [Example 173, 8-fluoro-N-[2-(2-thienyl)ethyl]-4-quinolinamine] | + (20-89% control at 400 ppm) | + (20-89% control at 400 ppm) | ++ (90-100% control at 400 ppm) | - (0-19% control at 400 ppm) | +++ (90-100% control at 100 ppm) | - (0-19% control at 400 ppm) | + (20-89% control at 400 ppm) | particularly excellent activity | 0 | 0 | 0 | 0 | – | – | – | – | – | – | – | – | LEAF SPOT [14]: +++ (90-100% control at 100 ppm); pathogens against which compounds of the invention showed activity [15]: Plasmopara viticola
4 | Cc1ccc(CCOc2ccnc3ccccc23)cc1 [Example 210, 4-[2-(4-methylphenyl)ethoxy]quinoline] | – | – | – | – | – | – | – | particularly excellent activity | 0 | 0 | 0 | 0 | 90 to 100 | 90 to 100 | 90 to 100 | 0 to 19 | 90 to 100 | 20 to 89 | 0 to 19 | 90 to 100 | activity against a broad spectrum of plant pathogens [16]: particularly excellent activity
5 | COc1ccccc1CCOc1ccnc2c(F)cccc12 [Example 228, 8-fluoro-4-[2-(2-methoxyphenyl)ethoxy]quinoline] | – | – | – | – | – | – | – | – | 0 | 0 | 0 | 0 | 90 to 100 | 90 to 100 | 90 to 100 | 0 to 19 | 90 to 100 | 20 to 89 | 90 to 100 | 90 to 100 | activity against a broad spectrum of plant pathogens [16]: particularly excellent activity; mortality at 400 ppm ([10]; foliar, foliar spray on squash): 0%; mortality at 400 ppm ([11]; foliar, foliar spray on squash): 0%; mortality at 400 ppm ([12]; foliar, foliar spray on squash): 80%; mortality at 24 ppm [13]: 0%
6 | CC(C)(C)c1ccc(CCCc2ccnc3c(F)cccc23)cc1 [Example 260, 4-[3-[4-(t-butyl)phenyl]propyl]-8-fluoroquinoline] | – | – | – | – | – | – | – | – | 100 | 100 | 100 | 0 | 90 to 100 | 90 to 100 | 90 to 100 | 0 to 19 | 90 to 100 | 20 to 89 | 0 to 19 | 90 to 100 | activity against rice blast ([2]; summary statement in the description): particularly excellent activity; activity against a broad spectrum of plant pathogens [16]: particularly excellent activity; mortality at 400 ppm ([10]; foliar, foliar spray on squash): 40%; mortality at 400 ppm ([11]; foliar, foliar spray on squash): 0%; mortality at 400 ppm ([12]; foliar, foliar spray on squash): 0%; mortality at 24 ppm [13]: 40%
7 | OC(c1ccc(F)cc1)(c1cncnc1)c1ccccc1Cl (stereo not drawn) [nuarimol, reference compound] | – | – | – | – | – | – | – | – | – | – | – | – | – | – | – | – | – | – | – | – | RESULTS ([17]; nuarimol alone 0.25 ppm): 1.0; RESULTS ([17]; nuarimol alone 0.50 ppm): 1.0; RESULTS ([17]; nuarimol alone 1.00 ppm): 1.0; RESULTS ([17]; nuarimol alone 2.00 ppm): 1.0; RESULTS ([18]; nuarimol alone 0.25 ppm): 6.0; RESULTS ([18]; nuarimol alone 0.50 ppm): 7.0; RESULTS ([18]; nuarimol alone 1.00 ppm): 8.0; RESULTS ([18]; nuarimol alone 2.00 ppm): 9.0
